Literature values as cited in patent US20110028397A1, “Use of Urokinase Type Plasminogen Activator Inhibitors for the Treatment of Corneal Disorders” (priority 2007, published 2011).

Tests used:
thrombin = thrombin (Homo sapiens, UniProt P00734)
[1] = eye drop prepared freshly daily, stored in refrigerator between uses
[2] = in vivo, sc

Compound | Ki (thrombin) | anticoagulant activity (in vitro and in vivo) | antithrombotic effect in in vivo studies (in vivo) | inhibitory activity on storage [1] | biological availability [2]
N=C(N)NCCC[C@@H](C=O)NC(=O)[C@@H]1CCCN1C(=O)[C@H](N)Cc1ccccc1 [Ald-1, D-Phe-Pro-Arg-aldehyde] | 75 nM | significant anticoagulant activity | effective antithrombotic drug | retains its inhibitory activity | –
iBuOCO-D-Ser-Ala-Arg-aldehyde | – | – | – | – | 87%
